Test results: PubChem BioAssay (NCI)
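Values below derive from 48-hour exposures of cells grown in 96-well plates, with endpoints linearly interpolated between the two concentrations bracketing the appropriate inhibition level. Definition used: TGI = concentration required for complete inhibition of growth.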

Legend:
Test in all cases: inhibition of tumour cell growth, NCI panel, 48 h
COLO 205 colon = test system: COLO 205 colon
U251 CNS = test system: U251 CNS
MCF7 breast = test system: MCF7 breast
NCI/ADR-RES ovarian = test system: NCI/ADR-RES ovarian
UO-31 renal = test system: UO-31 renal
ACHN renal = test system: ACHN renal
SN12C renal = test system: SN12C renal
CCRF-CEM leukemia = test system: CCRF-CEM leukemia
SF-268 CNS = test system: SF-268 CNS
A498 renal = test system: A498 renal
SR leukemia = test system: SR leukemia
LOX IMVI melanoma = test system: LOX IMVI melanoma
MALME-3M melanoma = test system: MALME-3M melanoma
SK-OV-3 ovarian = test system: SK-OV-3 ovarian
NCI-H226 lung = test system: NCI-H226 lung

| SMILES | TGI (COLO 205 colon) [µM] | TGI (U251 CNS) [µM] | TGI (MCF7 breast) [µM] | TGI (NCI/ADR-RES ovarian) [µM] | TGI (UO-31 renal) [µM] | TGI (ACHN renal) [µM] | TGI (SN12C renal) [µM] | TGI (CCRF-CEM leukemia) [µM] | TGI (SF-268 CNS) [µM] | TGI (A498 renal) [µM] | TGI (SR leukemia) [µM] | TGI (LOX IMVI melanoma) [µM] | TGI (MALME-3M melanoma) [µM] | TGI (SK-OV-3 ovarian) [µM] | TGI (NCI-H226 lung) [µM] |
| --- | --- | --- | --- | --- | --- | --- | --- | --- | --- | --- | --- | --- | --- | --- | --- |
| COc1cc(OC)nc(-n2c(N)c(C#N)c3ccc([N+](=O)[O-])cc3c2=O)n1 | > 100 | > 100 | > 100 | > 100 | > 100 | > 100 | > 100 | > 100 | > 100 | > 100 | > 100 | > 100 | – | – | – |
| COC(=O)c1sc(=S)sc1SCc1ccc(CSc2sc(=S)sc2C(=O)OC)cc1 | > 100 | > 100 | > 100 | > 100 | > 100 | > 100 | > 100 | > 100 | > 100 | > 100 | – | > 100 | > 100 | > 100 | > 100 |
| CC(=O)O[C@H]1[C@@H]2OC(=O)[C@@](O)(CC3CCCO3)[C@@H]2CC(=O)[C@](C)(O)CC/C=C(\C)CCC[C@@H]1C (some centres undefined) | 34.5 | > 100 | > 100 | > 100 | > 100 | > 100 | > 100 | 68.4 | > 100 | > 100 | – | 46.1 | > 100 | – | 32.5 |
| CN1CCN(c2ncc3c(n2)sc2c(=O)n(-c4ccccc4)cnc23)CC1 | > 100 | > 100 | – | > 100 | > 100 | > 100 | > 100 | > 100 | > 100 | > 100 | > 100 | > 100 | > 100 | > 100 | > 100 |
| O=S(Nc1ccccc1)c1cccc(Cl)c1 (centres undefined) | > 100 | > 100 | > 100 | > 100 | > 100 | > 100 | > 100 | > 100 | > 100 | – | > 100 | > 100 | > 100 | – | > 100 |
| Cc1cn(C2CC(O)C(COC(=O)NCCC(F)(F)C(F)(F)C(F)(F)C(F)(F)F)O2)c(=O)[nH]c1=O (centres undefined) | > 100 | > 100 | > 100 | – | > 100 | > 100 | > 100 | > 100 | > 100 | > 100 | > 100 | – | > 100 | > 100 | > 100 |
| S=C1N(/N=C/c2c3ccccc3cc3ccccc23)C(=Nc2ccccc2)C(=Nc2ccccc2)N1c1ccccc1 | > 100 | > 100 | > 100 | > 100 | > 100 | – | > 100 | – | > 100 | – | > 100 | – | > 100 | > 100 | > 100 |
| CC(C)(C)OC(=O)N1CCC(C(=O)O)CC1 | > 100 | > 100 | > 100 | > 100 | > 100 | > 100 | > 100 | > 100 | > 100 | > 100 | > 100 | > 100 | > 100 | – | – |
| CCCCCCC(=O)O[C@H]1CC[C@H]2[C@@H]3CCC4C/C(=N/NC(=O)c5cccc6c(=O)c7ccccc7[nH]c56)C=C(C)[C@]4(C)[C@H]3CC[C@]12C (some centres undefined) | > 25 | > 25 | > 25 | > 25 | > 25 | > 25 | > 25 | > 25 | > 25 | – | > 25 | > 25 | > 25 | > 25 | > 25 |
| C/C=C\C(CC(=O)NCCC1CN(S(=O)(=O)c2ccc(C)cc2)c2ccccc21)CC(=O)OC (centres undefined) | > 100 | > 100 | > 100 | > 100 | > 100 | > 100 | – | – | > 100 | > 100 | – | – | > 100 | > 100 | – |
| CN(C)CCN(C)c1ccc2c(=O)n(CCN(C)C)c(=O)n3c4ccccc4c(=O)c1c23 | 3.03 | 8.93 | 11.3 | 16.9 | 2.62 | 0.849 | 2.64 | 0.293 | 0.559 | 5.36 | – | 5.53 | 3 | 16.7 | 1.59 |
| Cc1ccc(NC2=CC(=O)C(NO)c3ccccc32)cc1 (centres undefined) | 8.72 | 11.9 | 10.8 | 5.81 | 12.2 | 12.5 | 10.5 | – | 17.7 | 33.4 | – | 11.7 | – | 46.6 | 49.3 |
| Cc1nn(C(=O)c2ccc(Cl)cc2)c2c1C(c1ccccc1[N+](=O)[O-])SC(N)=N2 (centres undefined) | > 10 | > 10 | > 10 | > 10 | – | > 10 | > 10 | > 10 | > 10 | – | > 10 | > 10 | > 10 | > 10 | > 10 |
| Cc1nn(C(=O)Cc2ccccc2)c2c1C(c1ccc(O)cc1O)SC(N)=N2 (centres undefined) | > 100 | – | > 100 | – | > 100 | > 100 | > 100 | > 100 | > 100 | > 100 | > 100 | > 100 | > 100 | > 100 | > 100 |
| CCOC(=O)c1c(N)sc2c1C(C)(C(=O)OCC)CC2 (centres undefined) | > 100 | > 100 | > 100 | – | > 100 | > 100 | > 100 | – | – | 83 | > 100 | – | > 100 | – | > 100 |
| Cc1ccc(N(C(=O)Nc2ccccc2)C2=NCC(C)S2)cc1C (centres undefined) | 41.6 | 51.3 | 71.9 | 52.4 | 80.7 | > 100 | 32 | 50.6 | 69.8 | 47.9 | 86 | 30.3 | 40.7 | > 100 | – |
| COc1ccc(CNC(=O)NCn2cc(-c3ccccc3)nn2)cc1 | > 100 | > 100 | > 100 | > 100 | – | > 100 | > 100 | > 100 | > 100 | – | > 100 | > 100 | > 100 | – | – |
